# Measurements from patent publication US20140309192A1, “MODULATORS OF THE G PROTEIN-COUPLED MAS RECEPTOR AND THE TREATMENT OF DISORDERS RELATED THERETO” (ARENA PHARMACEUTICALS, INC., priority 2011, published 2014).
# Structures can show the parent of a compound that is named as a salt.
# Experiment: Dynamic moisture-sorption (DMS)
# Assay type: physicochemical
# Conditions: for hygroscopicity (DMS) / total weight gain from the dried state (DMS): 25° C.; for weight gain at 90% RH and 25° C. (DMS): after a drying period
# Method: A dynamic moisture-sorption (DMS) study was conducted using a dynamic moisture-sorption analyzer, VTI Corporation, SGA-100. Samples were prepared for DMS analysis by placing 5 mg to 20 mg of a sample in a tared sample holder. The sample was placed on the hang-down wire of the VTI balance. A drying step was run, typically at 40° C. and 0.5-1% RH for 1 h. The isotherm temperature is 25° C. Defined % RH holds typically ranged from 10% RH to 90% RH, with intervals of 10 to 20% RH. A % weight change smaller than 0.010% over 10 min, or up to 2 h, whichever occurred first, was required before continuing to the next % RH hold. The water content of the sample equilibrated as described above was determined at each % RH hold.
Compound,hygroscopicity (DMS),weight gain at 90% RH and 25° C. (DMS),water picked up from 30% RH to 90% RH at 25° C. (DMS),total weight gain from the dried state (DMS)
NC(=O)[C@H](CO)NCc1ccc(C(=O)Nc2ccc(Cl)cc2N2CCN(CCC(F)(F)F)CC2)c(F)c1F [Compound 170 (Example 2.5B)],"FIG. 11: This polymorph of the free base is non-hygroscopic,",increasing ~0.1% weight at 90% RH and 25 °C,–,–
NC(=O)[C@H](CO)NCc1ccc(C(=O)Nc2ccc(Cl)cc2N2CCN(CCC(F)(F)F)CC2)c(F)c1F [Compound 170 dihydrochloride hydrate],–,–,0.7% water from 30% RH to 90% RH at 25 °C,dried state was about 2.5%. The sample picked up only about
NC(=O)[C@H](CO)NCc1ccc(C(=O)Nc2ccc(Cl)cc2N2CCN(CCC(F)(F)F)CC2)c(F)c1F [Compound 170 dihydrochloride solvate],–,–,–,"The total weight gain from the dried state was about 2%, thus"
"Cl.Cl.NC(=O)[C@H](CO)NCc1ccc(C(=O)Nc2ccc(Cl)cc2N2CCN(CCC(F)(F)F)CC2)c(F)c1F [Compound 170 dihydrochloride, (S)-4-((1-amino-3-hydroxy-1-oxopropan-2-ylamino)methyl)-N-(4-chloro-2-(4-(3,3,3-trifluoropropyl)piperazin-1-yl)phenyl)-2,3-difluorobenzamide dihydrochloride]",–,"drying period, was about 3.4%. It was shown by PXRD of the",–,–
"NC(=O)[C@H](CO)NCc1ccc(C(=O)Nc2ccc(Cl)cc2N2CCN(CCC(F)(F)F)CC2)c(F)c1F [Compound 170, (S)-4-((1-Amino-3-hydroxy-1-oxopropan-2-ylamino)methyl)-N-(4-chloro-2-(4-(3,3,3-trifluoropropyl)piperazin-1-yl)phenyl)-2,3-difluorobenzamide]",non-hygroscopic,~0.1%,–,–
